Consider three compounds from patent US20250084101A1, “COMPOUND FOR INHIBITING AND DEGRADING IRAK4, AND PHARMACEUTICAL COMPOSITION AND PHARMACEUTICAL APPLICATION THEREOF” (XIZANG HAISCO PHARMACEUTICAL CO., LTD., priority 2022, published 2025).

Each structure is given as a SMILES string. Where two headings read alike, the source gives them in different places.

One data set has as its target T1, IRAK4 protein (Homo sapiens, UniProt Q9NWZ3).
T1 construct: endogenous in cells; host or cells: human peripheral blood mononuclear cells (hPBMC) from healthy volunteers
T1 sequence (Q9NWZ3 1-460): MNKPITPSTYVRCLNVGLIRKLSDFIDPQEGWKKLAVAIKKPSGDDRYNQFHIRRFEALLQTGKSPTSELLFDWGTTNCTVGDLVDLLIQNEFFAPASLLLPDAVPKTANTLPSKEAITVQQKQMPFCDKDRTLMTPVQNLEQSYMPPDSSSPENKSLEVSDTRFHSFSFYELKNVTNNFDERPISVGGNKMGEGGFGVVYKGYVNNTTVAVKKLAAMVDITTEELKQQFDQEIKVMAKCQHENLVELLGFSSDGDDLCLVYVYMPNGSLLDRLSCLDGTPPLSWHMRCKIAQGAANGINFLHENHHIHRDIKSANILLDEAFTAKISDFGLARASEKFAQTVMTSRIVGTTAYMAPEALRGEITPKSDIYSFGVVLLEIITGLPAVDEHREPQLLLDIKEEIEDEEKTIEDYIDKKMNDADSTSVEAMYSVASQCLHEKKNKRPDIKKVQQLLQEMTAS
Kind of data set: IRAK4 degradation activity in hPBMC cells (24 hours). The format is cell-based. As to conditions: for Remaining IRAK4 protein IRAK4%: 100 nM, relative to vehicle control. As for the experimental part:
hPBMC cells are human peripheral blood mononuclear cells. Peripheral venous blood was taken from healthy volunteers, and hPBMCs were isolated using Ficoll density gradient centrifugation (Ficoll-Paque™ PLUS 1.077, GE, Cat. 17-1140-02). Culture conditions: RPMI-1640+10% FBS+1% penicillin-streptomycin solution. The cells were cultured in an incubator at 37° C. and 5% CO2. The cells were plated in a 24-well plate at 1×10^6 cells/well. After plating, compounds at different concentrations were added, and the cells were cultured in an incubator at 37° C. and 5% CO2 for 24 hours. After the culture was completed, the cells were collected, and RIPA lysis buffer (beyotime, Cat. P0013B) was added. The cells were lysed on ice for 20 minutes, and then centrifuged at 12000 rpm at 4° C. for 10 minutes. The protein sample of the supernatant was collected, the protein was quantified using a BCA kit (Beyotime, Cat. P0009), and then the protein was diluted to 1 mg/mL. The expression of IRAK4 (CST, Cat. 4363S) and the internal reference cofilin (CST, Cat. 5175S) were detected using a fully automated western blot quantitative analyzer (Proteinsimple). The expression level of IRAK4 relative to the internal reference was calculated using compass software. The remaining IRAK4 protein IRAK4% relative to the vehicle control group at different doses was calculated using formula (1), and the IRAK4 protein degradation relative to the vehicle control group at different doses was calculated using formula (2), where IRAK4administration was the expression level of IRAK4 in the administration groups at different doses, and IRAK4vehicle was the expression level of IRAK4 in the vehicle control group. An IRAK4 degradation-drug concentration curve was fit using Graphpad Prism 8 software, and the DC50 was calculated.

A short description of data set [1]: Pharmacokinetic test in mice. The format is in vivo, ICR mice. As to conditions: plasma, i.g. 10 mg/kg. As for the experimental part: Experimental animals: Male ICR mice, about 25 g, 6 mice/compound, purchased from Chengdu Ddossy Experimental Animals Co., Ltd.
Test design: On the day of the experiment, 6 ICR mice were randomly grouped according to their body weights. The animals were fasted with water available for 12 to 14 h one day before the administration, and were fed 4 h after the administration.
• Vehicle for intravenous administration: 5% DMA+5% Solutol+90% Saline; • Vehicle for intragastric administration: 5% DMSO+30% PEG400+65% (20% SBE-CD); (DMSO: dimethyl sulfoxide; DMA: dimethylacetamide; Solutol: polyethylene glycol-15-hydroxystearate; PEG400: polyethylene glycol 400; SBE-β-CD: sulfobutyl-β-cyclodextrin; Saline: physiological saline)
Before and after the administration, 0.15 mL of blood was taken from the orbit of the animals under isoflurane anesthesia and placed in an EDTAK2 centrifuge tube. The blood was centrifuged at 5000 rpm and 4° C. for 10 min to collect plasma. The blood collection time points for the intravenous administration group and intragastric administration group were 0 min, 5 min, 15 min, 30 min, 1 h, 2 h, 4 h, 7 h and 24 h. Before analysis and detection, all samples were stored at −60° C. The samples were analyzed quantitatively by LC-MS/MS.

The target in data set [2] is T2, hERG potassium ion channel (Homo sapiens, UniProt Q12809).
T2 construct: expressed in transfected cells; host or cells: CHO (Chinese hamster ovary) cells stably expressing hERG
T2 sequence (Q12809 whole entry): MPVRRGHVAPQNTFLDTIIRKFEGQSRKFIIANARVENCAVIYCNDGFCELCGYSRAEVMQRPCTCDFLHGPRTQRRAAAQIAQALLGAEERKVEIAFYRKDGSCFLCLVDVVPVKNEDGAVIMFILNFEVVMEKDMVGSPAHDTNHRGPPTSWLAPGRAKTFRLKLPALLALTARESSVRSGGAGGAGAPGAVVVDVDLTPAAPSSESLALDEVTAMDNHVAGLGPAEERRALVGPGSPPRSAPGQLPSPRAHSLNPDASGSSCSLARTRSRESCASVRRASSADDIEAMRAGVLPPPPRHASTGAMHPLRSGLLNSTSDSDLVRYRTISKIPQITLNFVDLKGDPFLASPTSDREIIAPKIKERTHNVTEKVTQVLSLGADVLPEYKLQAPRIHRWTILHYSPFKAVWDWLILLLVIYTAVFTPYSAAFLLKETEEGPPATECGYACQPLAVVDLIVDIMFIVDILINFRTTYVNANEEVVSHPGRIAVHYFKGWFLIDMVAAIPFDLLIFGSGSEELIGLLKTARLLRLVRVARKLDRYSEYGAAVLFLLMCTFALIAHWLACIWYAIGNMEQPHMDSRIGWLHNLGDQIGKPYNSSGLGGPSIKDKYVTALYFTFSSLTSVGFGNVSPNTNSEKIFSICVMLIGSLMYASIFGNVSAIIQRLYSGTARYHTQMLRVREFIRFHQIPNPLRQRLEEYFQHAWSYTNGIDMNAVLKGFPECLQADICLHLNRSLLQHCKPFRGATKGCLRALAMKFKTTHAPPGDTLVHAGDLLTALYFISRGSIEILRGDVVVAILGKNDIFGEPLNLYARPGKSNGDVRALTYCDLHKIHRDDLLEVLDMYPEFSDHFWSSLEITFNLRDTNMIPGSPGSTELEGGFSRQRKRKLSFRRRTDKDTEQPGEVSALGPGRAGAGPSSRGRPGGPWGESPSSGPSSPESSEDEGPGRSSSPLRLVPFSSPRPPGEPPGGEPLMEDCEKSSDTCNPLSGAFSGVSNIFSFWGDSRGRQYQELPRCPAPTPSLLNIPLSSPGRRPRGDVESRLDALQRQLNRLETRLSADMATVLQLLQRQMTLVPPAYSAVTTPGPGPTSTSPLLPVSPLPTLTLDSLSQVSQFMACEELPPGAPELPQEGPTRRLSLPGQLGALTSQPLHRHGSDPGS
Description: Effect on hERG potassium ion channel (manual patch-clamp, CHO cells). It counts as cell-based. The conditions noted are these: CHO cells stably expressing hERG, whole cell patch-clamp; read-out: IC50 for inhibitory effect on hERG potassium channel current. From the text:
Experimental platform: electrophysiological manual patch-clamp system
Cell line: Chinese hamster ovary (CHO) cell line stably expressing hERG potassium ion channel
Experimental method: In CHO (Chinese Hamster Ovary) cells stably expressing hERG potassium channel, whole cell patch-clamp technique was used to record hERG potassium channel current at room temperature. The glass microelectrode was made of a glass electrode blank (BF150-86-10, Sutter) by a puller. The tip resistance after filling the liquid in the electrode was about 2-5 MQ. The glass microelectrode can be connected to the patch-clamp amplifier by inserting the glass microelectrode into an amplifier probe. The clamping voltage and data recording were controlled and recorded by the pClamp 10 software through a computer. The sampling frequency was 10 kHz, and the filtering frequency was 2 kHz. After the whole cell records were obtained, the cells were clamped at −80 mV, and the step voltage that induced the hERG potassium current (lhERG) was depolarized from −80 mV to +20 mV for 2 s, then repolarized to −50 mV, and returned to −80 mV after 1 s. This voltage stimulation was given every 10 s, and the administration process was started after the hERG potassium current was confirmed to be stable (at least 1 minute). The compound was administered for at least 1 minute at each test concentration, and at least 2 cells (n≥2) were tested at each concentration.
Data processing: Data analysis processing was carried out by using pClamp 10, GraphPad Prism 5 and Excel software. The inhibition degree of hERG potassium current (peak value of hERG tail current induced at −50 mV) at different compound concentrations was calculated by the following formula:
[formula] • where Inhibition % represents the percentage of inhibition of hERG potassium current by the compound, and l and lo represent the amplitude of hERG potassium current after and before the administration, respectively.
Compound IC50 was calculated using GraphPad Prism 5 software by fitting according to the following equation:
[formula] • where X represents the Log value of the tested concentration of the test sample, Y represents the inhibition percentage at the corresponding concentration, and Bottom and Top represent the minimum and maximum inhibition percentage, respectively.

Setting [3] is: male, ICR, mouse, po, 10 mg/kg, read-out: AUC0-t.

For `Cn1nc(C2CCC(=O)NC2=O)c2cccc(C#CCO[C@@H]3CCN(C[C@H]4CC[C@H](n5cc(NC(=O)c6cnn7ccc(N8CCO[C@@H](CO)C8)nc67)c(C(F)F)n5)CC4)C[C@@H]3F)c21` (single isomer, unassigned) [Chiral isomer 1 of compound 19], the DC50 at IRAK4 protein is < 20 nM. Further, the AUC(0-t) in data set [1] came out at 13407 ± 4034 ng·h/mL. Moreover, the concentration for half-maximal inhibition (IC50) in data set [2] was > 20 µM.

As to `Cn1nc(C2CCC(=O)NC2=O)c2cccc(C#CCO[C@@H]3CCN(C[C@H]4CC[C@H](n5cc(NC(=O)c6cnn7ccc(N8C[C@H]9C[C@@H]8CO9)nc67)c(C(F)F)n5)CC4)C[C@@H]3F)c21` (stereo partly drawn) [Compound 10], on IRAK4 protein, the “Remaining IRAK4 protein IRAK4%” value is on record as “A (A ≤ 10%)”. Also, the AUC(0-t) in data set [1] (setting [3]) worked out at 17500 ± 5260 ng·h/mL. Also, the IC50 in data set [2] was > 30 µM.

As for `Cn1nc(C2CCC(=O)NC2=O)c2cccc(C#CCO[C@H]3CCN(C[C@H]4CC[C@H](n5cc(NC(=O)c6cnn7ccc(N8C[C@H]9C[C@@H]8CO9)nc67)c(C(F)F)n5)CC4)C[C@H]3F)c21` (stereo partly drawn) [Compound 11], the “Remaining IRAK4 protein IRAK4%” value at IRAK4 protein was “A (A ≤ 10%)”. Also, the AUC(0-t) in data set [1] (setting [3]) was 8750 ± 4650 ng·h/mL. Also, the IC50 in data set [2] is > 30 µM.

In general, DC50 refers to the concentration at which degradation of the target reaches its halfway point. In general, IC50 refers to the concentration that gives 50% inhibition.
